According to patent US11897904B2, “Herbicidally active bicyclic benzamides” (Bayer Aktiengesellschaft, priority 2017, dated 2024):

How the values were obtained:
ECHCG = experiment: Post-emergence herbicidal action; assay type: in vivo, Echinochloa crus-galli; settings: rated visually after about 3 weeks vs untreated controls
Description: (§1) 2. Post-Emergence Herbicidal Action and Crop Plant Compatibility
(§2) Seeds of monocotyledonous and dicotyledonous weeds and crop plants are placed in sandy loam in plastic or organic planting pots, covered with soil and cultivated in a greenhouse under controlled growth conditions. 2 to 3 weeks after sowing, the test plants are treated at the one-leaf stage. The compounds of the invention, formulated in the form of wettable powders (WP) or as emulsion concentrates (EC), are then sprayed onto the green parts of the plants as aqueous suspension or emulsion with addition of 0.5% additive at a water application rate of […] (converted). After the test plants had been kept in the greenhouse under optimum growth conditions for about 3 weeks, the activity of the preparations is rated visually in comparison to untreated controls. The tables below show the herbicidal activity of numerous compounds according to the invention against important harmful plants. For example, 100% activity=the plants have died, 0% activity=like control plants.

AMARE [1] = experiment: Post-emergence herbicidal action; assay type: in vivo, Amaranthus retroflexus; settings: rated visually after about 3 weeks vs untreated controls
Description: as §1, §2

SETVI [2] = experiment: Post-emergence herbicidal action; assay type: in vivo, Setaria viridis; settings: rated visually after about 3 weeks vs untreated controls
Description: as §1, §2

ABUTH [3] = experiment: Post-emergence herbicidal action; assay type: in vivo, Abutilon theophrasti; settings: post-emergence, rated visually after about 3 weeks vs untreated controls
Description: as §1, §2

ABUTH [4] = experiment: Pre-emergence herbicidal action; assay type: in vivo, Abutilon theophrasti; settings: pre-emergence, scored visually after about 3 weeks vs untreated controls
Text: (§3) 1. Pre-Emergence Herbicidal Action and Crop Plant Compatibility
(§4) Seeds of monocotyledonous and dicotyledonous weed plants and crop plants are placed in plastic or organic planting pots and covered with soil. The compounds of the invention, formulated in the form of wettable powders (WP) or as emulsion concentrates (EC), are then applied onto the surface of the covering soil as aqueous suspension or emulsion with addition of 0.5% additive at a water application rate of 600 l/ha (converted). After the treatment, the pots are placed in a greenhouse and kept under good growth conditions for the trial plants. After about 3 weeks, the effect of the preparations is scored visually in comparison with untreated controls as percentages. The tables below show the herbicidal activity of numerous compounds according to the invention against important harmful plants. For example, 100% activity=the plants have died, 0% activity=like control plants.

VERPE [5] = experiment: Post-emergence herbicidal action; assay type: in vivo, Veronica persica; settings: rated visually after about 3 weeks vs untreated controls
Description: as §1, §2

VIOTR [6] = experiment: Pre-emergence herbicidal action; assay type: in vivo, Viola tricolor; settings: scored visually after about 3 weeks vs untreated controls
Text: as §3, §4

AMARE [7] = experiment: Pre-emergence herbicidal action; assay type: in vivo, Amaranthus retroflexus; settings: scored visually after about 3 weeks vs untreated controls
Text: as §3, §4

VERPE [8] = experiment: Pre-emergence herbicidal action; assay type: in vivo, Veronica persica; settings: scored visually after about 3 weeks vs untreated controls
Text: as §3, §4

VIOTR [9] = experiment: Post-emergence herbicidal action; assay type: in vivo, Viola tricolor; settings: rated visually after about 3 weeks vs untreated controls
Description: as §1, §2

PHBPU = experiment: Post-emergence herbicidal action; assay type: in vivo, Ipomoea purpurea; settings: rated visually after about 3 weeks vs untreated controls
Description: as §1, §2

STEME [10] = experiment: Pre-emergence herbicidal action; assay type: in vivo, Stellaria media; settings: scored visually after about 3 weeks vs untreated controls
Text: as §3, §4

STEME [11] = experiment: Post-emergence herbicidal action; assay type: in vivo, Stellaria media; settings: rated visually after about 3 weeks vs untreated controls
Description: as §1, §2

MATIN [12] = experiment: Pre-emergence herbicidal action; assay type: in vivo, Matricaria inodora; settings: pre-emergence, scored visually after about 3 weeks vs untreated controls
Text: as §3, §4

MATIN [13] = experiment: Post-emergence herbicidal action; assay type: in vivo, Matricaria inodora; settings: 80 g/ha, rated visually after about 3 weeks vs untreated controls
Description: as §1, §2

SETVI [14] = experiment: Pre-emergence herbicidal action; assay type: in vivo, Setaria viridis; settings: pre-emergence, 320 g/ha, scored visually after about 3 weeks vs untreated controls
Text: as §3, §4

COC1Oc2c(C(=O)Nc3nnnn3C)ccc(C(F)(F)F)c2S1 (stereo not drawn) [Example 2-112, 2-methoxy-4-(trifluoromethyl)-1,3-benzoxathiolane-N-(1-methyltetrazol-5-yl)-7-carboxamide]
herbicidal activity ECHCG (ECHCG; 20 g/ha): 80% | herbicidal activity AMARE (AMARE [1]; 20 g/ha): 80% | herbicidal activity SETVI (SETVI [2]; 20 g/ha): 80% | herbicidal activity ABUTH (ABUTH [3]; 20 g/ha): 90% | herbicidal activity ABUTH (ABUTH [4]; 80 g/ha): 100% | herbicidal activity VERPE (VERPE [5]; 20 g/ha): 80% | herbicidal activity VIOTR (VIOTR [6]; 80 g/ha): 100% | herbicidal activity AMARE (AMARE [7]; 80 g/ha): 90% | herbicidal activity VERPE (VERPE [8]; 80 g/ha): 80%

Cn1nnnc1NC(=O)c1ccc(C(F)F)c2c1SCS2 [Example 2-22]
herbicidal activity VIOTR (VIOTR [9]; 20 g/ha): 100% | herbicidal activity PHBPU (PHBPU; 20 g/ha): 80%

Cn1nnnc1NC(=O)c1ccc(Cl)c2c1[S+]([O-])CS2 (stereo not drawn) [Example 2-254]
herbicidal activity AMARE (AMARE [7]; 80 g/ha): 80%

Cn1nnnc1NC(=O)c1ccc(S(C)(=O)=O)c2c1OCS2 [Example 2-58]
herbicidal activity AMARE (AMARE [1]; 20 g/ha): 80% | herbicidal activity ABUTH (ABUTH [3]; 20 g/ha): 80%

CSc1ccc(C(=O)Nc2nnnn2C)c2c1SCS2 [Example 2-253]
herbicidal activity ABUTH (ABUTH [3]; 20 g/ha): 90%

CCOC1Oc2c(C(=O)Nc3nnnn3C)ccc(C(F)(F)F)c2S1 (stereo not drawn) [Example 2-130]
herbicidal activity VIOTR (VIOTR [9]; 20 g/ha): 90% | herbicidal activity STEME (STEME [10]; 80 g/ha): 100% | herbicidal activity ABUTH (ABUTH [3]; 20 g/ha): 90% | herbicidal activity ABUTH (ABUTH [4]; 80 g/ha): 100% | herbicidal activity VIOTR (VIOTR [6]; 80 g/ha): 100%

Cn1nnnc1NC(=O)c1ccc(C(F)(F)F)c2c1SC[S+]2[O-] (stereo not drawn) [Example 2-255]
herbicidal activity VIOTR (VIOTR [9]; 20 g/ha): 80% | herbicidal activity STEME (STEME [11]; 20 g/ha): 80%

Cn1nnnc1NC(=O)c1ccc(C(F)(F)F)c2c1S(=O)(=O)CS2(=O)=O [Example 2-43]
herbicidal activity VIOTR (VIOTR [9]; 20 g/ha): 90% | herbicidal activity AMARE (AMARE [1]; 20 g/ha): 80% | herbicidal activity STEME (STEME [10]; 80 g/ha): 90% | herbicidal activity MATIN (MATIN [12]; 80 g/ha): 80% | herbicidal activity ABUTH (ABUTH [4]; 80 g/ha): 100% | herbicidal activity VIOTR (VIOTR [6]; 80 g/ha): 100% | herbicidal activity AMARE (AMARE [7]; 80 g/ha): 100%

Cn1ncnc1NC(=O)c1ccc(C(F)(F)F)c2c1OC[S+]2[O-] (stereo not drawn) [Example 1-50]
herbicidal activity VIOTR (VIOTR [9]; 20 g/ha): 80% | herbicidal activity AMARE (AMARE [1]; 20 g/ha): 80% | herbicidal activity MATIN (MATIN [12]; 80 g/ha): 90% | herbicidal activity ABUTH (ABUTH [3]; 20 g/ha): 80%

COC1Sc2c(C(=O)Nc3nnnn3C)ccc(C(F)(F)F)c2S1 (stereo not drawn) [Example 2-257]
herbicidal activity ECHCG (ECHCG; 20 g/ha): 100% | herbicidal activity VIOTR (VIOTR [9]; 20 g/ha): 80% | herbicidal activity ABUTH (ABUTH [3]; 20 g/ha): 90%

Cn1nnnc1NC(=O)c1ccc(S(C)(=O)=O)c2c1OC(F)(F)O2 [Example 2-15]
herbicidal activity AMARE (AMARE [1]; 80 g/ha): 80% | herbicidal activity VERPE (VERPE [8]; 320 g/ha): 90%

Cc1ccc(C(=O)Nc2nnnn2C)c2c1SCO2 [Example 2-50]
herbicidal activity PHBPU (PHBPU; 80 g/ha): 80%

Cn1nnnc1NC(=O)c1ccc(C(F)F)c2c1OCS2 [Example 2-54]
herbicidal activity ECHCG (ECHCG; 80 g/ha): 100% | herbicidal activity VIOTR (VIOTR [9]; 80 g/ha): 100% | herbicidal activity PHBPU (PHBPU; 80 g/ha): 80% | herbicidal activity AMARE (AMARE [1]; 80 g/ha): 90% | herbicidal activity SETVI (SETVI [2]; 80 g/ha): 90% | herbicidal activity ABUTH (ABUTH [3]; 80 g/ha): 80% | herbicidal activity VERPE (VERPE [5]; 80 g/ha): 90% | herbicidal activity AMARE (AMARE [7]; 320 g/ha): 80%

Cn1nnnc1NC(=O)c1ccc(C(F)F)c2c1OCS2(=O)=O [Example 2-84]
herbicidal activity ECHCG (ECHCG; 80 g/ha): 90% | herbicidal activity MATIN (MATIN [13]): 100% | herbicidal activity VIOTR (VIOTR [9]; 80 g/ha): 100% | herbicidal activity PHBPU (PHBPU; 80 g/ha): 90% | herbicidal activity AMARE (AMARE [1]; 80 g/ha): 100% | herbicidal activity SETVI (SETVI [2]; 80 g/ha): 100% | herbicidal activity STEME (STEME [11]; 80 g/ha): 100% | herbicidal activity STEME (STEME [10]; 320 g/ha): 90% | herbicidal activity MATIN (MATIN [12]; 320 g/ha): 100% | herbicidal activity ABUTH (ABUTH [3]; 80 g/ha): 90% | herbicidal activity ABUTH (ABUTH [4]; 320 g/ha): 90% | herbicidal activity VERPE (VERPE [5]; 80 g/ha): 100% | herbicidal activity VIOTR (VIOTR [6]; 320 g/ha): 100% | herbicidal activity AMARE (AMARE [7]; 320 g/ha): 100% | herbicidal activity VERPE (VERPE [8]; 320 g/ha): 100% | herbicidal activity SETVI (SETVI [14]): 90%

Cc1ccc(C(=O)Nc2nnnn2C)c2c1S(=O)(=O)CO2 [Example 2-80]
herbicidal activity MATIN (MATIN [13]): 80% | herbicidal activity VIOTR (VIOTR [9]; 80 g/ha): 90% | herbicidal activity AMARE (AMARE [1]; 80 g/ha): 90% | herbicidal activity STEME (STEME [11]; 80 g/ha): 90% | herbicidal activity MATIN (MATIN [12]; 320 g/ha): 80% | herbicidal activity AMARE (AMARE [7]; 320 g/ha): 90%

Cn1nnnc1NC(=O)c1ccc(C(F)(F)F)c2c1SCS2 [Example 2-21, 7-(trifluoromethyl)-1,3-benzodithiolane-N-(1-methyltetrazol-5-yl)-4-carboxamide]
herbicidal activity VIOTR (VIOTR [9]; 20 g/ha): 80% | herbicidal activity STEME (STEME [11]; 20 g/ha): 80% | herbicidal activity STEME (STEME [10]; 80 g/ha): 90%

CSc1ccc(C(=O)Nc2nnnn2C)c2c1OC(F)(F)O2 [Example 2-13]
herbicidal activity AMARE (AMARE [1]; 80 g/ha): 80% | herbicidal activity STEME (STEME [11]; 80 g/ha): 80% | herbicidal activity ABUTH (ABUTH [3]; 80 g/ha): 80% | herbicidal activity VERPE (VERPE [5]; 80 g/ha): 90% | herbicidal activity VERPE (VERPE [8]; 320 g/ha): 90%

Cn1ncnc1NC(=O)c1ccc(C(F)(F)F)c2c1OCS2(=O)=O [Example 1-65]
herbicidal activity PHBPU (PHBPU; 20 g/ha): 80% | herbicidal activity AMARE (AMARE [1]; 20 g/ha): 80%

CC1Oc2c(C(=O)Nc3nnnn3C)ccc(C(F)(F)F)c2S1 (stereo not drawn) [Example 2-94, 2-methyl-4-(trifluoromethyl)-1,3-benzoxathiolane-N-(1-methyltetrazol-5-yl)-7-carboxamide]
herbicidal activity ECHCG (ECHCG; 80 g/ha): 80% | herbicidal activity VIOTR (VIOTR [9]; 80 g/ha): 80% | herbicidal activity AMARE (AMARE [1]; 80 g/ha): 90% | herbicidal activity SETVI (SETVI [2]; 80 g/ha): 80% | herbicidal activity STEME (STEME [11]; 80 g/ha): 100% | herbicidal activity STEME (STEME [10]; 320 g/ha): 100% | herbicidal activity ABUTH (ABUTH [3]; 80 g/ha): 90% | herbicidal activity ABUTH (ABUTH [4]; 320 g/ha): 90% | herbicidal activity VIOTR (VIOTR [6]; 320 g/ha): 100% | herbicidal activity AMARE (AMARE [7]; 320 g/ha): 100% | herbicidal activity SETVI (SETVI [14]): 100%

CCn1nnnc1NC(=O)c1ccc(C(F)F)c2c1OCS2 [Example 3-53]
herbicidal activity ECHCG (ECHCG; 80 g/ha): 80% | herbicidal activity MATIN (MATIN [13]): 80% | herbicidal activity VIOTR (VIOTR [9]; 80 g/ha): 90% | herbicidal activity AMARE (AMARE [1]; 80 g/ha): 100% | herbicidal activity SETVI (SETVI [2]; 80 g/ha): 80% | herbicidal activity STEME (STEME [11]; 80 g/ha): 90% | herbicidal activity ABUTH (ABUTH [3]; 80 g/ha): 90% | herbicidal activity VERPE (VERPE [5]; 80 g/ha): 80% | herbicidal activity VIOTR (VIOTR [6]; 320 g/ha): 100% | herbicidal activity AMARE (AMARE [7]; 320 g/ha): 90%

Cn1ncnc1NC(=O)c1ccc(C(F)(F)F)c2c1OCS2 [Example 1-35]
herbicidal activity VIOTR (VIOTR [9]; 20 g/ha): 80% | herbicidal activity ABUTH (ABUTH [3]; 20 g/ha): 80%
